Assay results as given in ChEMBL document CHEMBL1649243, “TEM-168, a heretofore laboratory-derived TEM beta-lactamase variant found in an Escherichia coli clinical isolate” (2009).
Values after ≈ are worked out from the molar mass of the structure shown.

Tests used:
Format in all cases: functional
[1] = test system: Escherichia coli; experiment: Antimicrobial activity against Escherichia coli NO8-1503 harboring blaTEM-168 gene by disk diffusion method
[2] = test system: Escherichia coli; experiment: Antimicrobial activity against Escherichia coli NO8-1503 harboring blaTEM-168 gene by disk diffusion method in presence of clavulanic acid
[3] = test system: Escherichia coli; experiment: Antimicrobial activity against Escherichia coli NO8-1503 harboring blaTEM-168 gene by broth microdilution method
[4] = test system: Escherichia coli; experiment: Antimicrobial activity against Escherichia coli NO8-1503 harboring blaTEM-168 gene by broth microdilution method in presence of clavulanic acid
[5] = test system: Escherichia coli; experiment: Antimicrobial activity against Escherichia coli DH10B transformant harboring blaTEM-168 gene by disk diffusion method
[6] = test system: Escherichia coli; experiment: Antimicrobial activity against Escherichia coli DH10B transformant harboring blaTEM-168 gene by disk diffusion method in presence of clavulanic acid
[7] = test system: Escherichia coli; experiment: Antimicrobial activity against Escherichia coli DH10B transformant harboring blaTEM-168 gene by broth microdilution method
[8] = test system: Escherichia coli; experiment: Antimicrobial activity against Escherichia coli DH10B transformant harboring blaTEM-168 gene by broth microdilution method in presence of clavulanic acid
[9] = test system: Escherichia coli; experiment: Antimicrobial activity against Escherichia coli DH10B by disk diffusion method
[10] = test system: Escherichia coli; experiment: Antimicrobial activity against Escherichia coli DH10B by disk diffusion method in presence of clavulanic acid
[11] = test system: Escherichia coli; experiment: Antimicrobial activity against Escherichia coli DH10B by broth microdilution method
[12] = test system: Escherichia coli; experiment: Antimicrobial activity against Escherichia coli DH10B by broth microdilution method in presence of clavulanic acid
[13] = test system: Escherichia coli; experiment: Antimicrobial activity against Escherichia coli NO8-1503 harboring blaTEM-168 gene by Etest in presence of Tazobactam
[14] = test system: Escherichia coli; experiment: Antimicrobial activity against Escherichia coli DH10B transformant harboring blaTEM-168 gene by Etest in presence of Tazobactam
[15] = test system: Escherichia coli; experiment: Antimicrobial activity against Escherichia coli DH10B by Etest in presence of Tazobactam
[16] = test system: Escherichia coli; experiment: Antimicrobial activity against Escherichia coli NO8-1503 harboring blaTEM-168 gene by Etest in presence of clavulanic acid
[17] = test system: Escherichia coli; experiment: Antimicrobial activity against Escherichia coli DH10B transformant harboring blaTEM-168 gene by Etest in presence of clavulanic acid
[18] = test system: Escherichia coli; experiment: Antimicrobial activity against Escherichia coli DH10B by Etest in presence of clavulanic acid
[19] = test system: Escherichia coli; experiment: Antimicrobial activity against Escherichia coli NO8-1503 harboring blaTEM-168 gene by Etest
[20] = test system: Escherichia coli; experiment: Antimicrobial activity against Escherichia coli DH10B transformant harboring blaTEM-168 gene by Etest
[21] = test system: Escherichia coli; experiment: Antimicrobial activity against Escherichia coli DH10B by Etest

Row | SMILES | inhibition zone (IZ) [1] | inhibition zone (IZ) [2] | MIC [3] | MIC [4] | inhibition zone (IZ) [5] | inhibition zone (IZ) [6] | MIC [7] | inhibition zone (IZ) [9] | inhibition zone (IZ) [10] | MIC [11] | MIC [12] | MIC [16] | MIC [17] | MIC [18] | MIC [19] | MIC [20] | MIC [21] | other results
1 | COCC1=C(C(=O)O)N2C(=O)[C@@H](NC(=O)/C(=N\OC)c3csc(N)n3)[C@H]2SC1 [CEFPODOXIME] | 20 mm | 15 mm | 8 µg/mL (≈ 18.7 µM) | 0.5 µg/mL | 20 mm | 16 mm | 4 µg/mL (≈ 9.36 µM) | 27 mm | 21 mm | 1 µg/mL (≈ 2.34 µM) | ≤ 0.125 µg/mL |  |  |  |  |  |  | MIC [8]: 0.25 µg/mL
2 | CCN1CCN(C(=O)N[C@@H](C(=O)N[C@@H]2C(=O)N3[C@@H]2SC(C)(C)[C@@H]3C(=O)O)c2ccccc2)C(=O)C1=O [PIPERACILLIN] |  |  |  |  |  |  |  |  |  |  |  |  |  |  |  |  |  | MIC [13]: > 256 µg/mL; MIC [14]: > 256 µg/mL; MIC [15]: 1.5 µg/mL
3 | CC1(C)S[C@@H]2[C@H](NC(=O)[C@H](N)c3ccc(O)cc3)C(=O)N2[C@H]1C(=O)O [AMOXICILLIN] |  |  |  |  |  |  |  |  |  |  |  | 32 µg/mL | 64 µg/mL | 3 µg/mL |  |  |  | 
4 | CO/N=C(\C(=O)N[C@@H]1C(=O)N2C(C(=O)[O-])=C(C[N+]3(C)CCCC3)CS[C@H]12)c1csc(N)n1 |  |  | 8 µg/mL (≈ 16.6 µM) |  |  |  | 4 µg/mL (≈ 8.32 µM) |  |  |  |  |  |  |  | 2 µg/mL (≈ 4.16 µM) | 2 µg/mL (≈ 4.16 µM) |  | 
5 | CO/N=C(\C(=O)N[C@@H]1C(=O)N2C(C(=O)O)=C(COC(C)=O)CS[C@H]12)c1csc(N)n1 [CEFOTAXIME] | 23 mm | 24 mm | ≤ 0.25 µg/mL | ≤ 0.12 µg/mL | 26 mm | 30 mm |  | 29 mm | 33 mm | ≤ 0.25 µg/mL | ≤ 0.12 µg/mL | 0.094 µg/mL | 0.094 µg/mL | 0.094 µg/mL | 0.25 µg/mL (≈ 0.549 µM) | 0.25 µg/mL (≈ 0.549 µM) | < 0.25 µg/mL | 
6 | CC(C)(O/N=C(\C(=O)N[C@@H]1C(=O)N2C(C(=O)[O-])=C(C[n+]3ccccc3)CS[C@H]12)c1csc(N)n1)C(=O)O [CEFTAZIDIME] | 8 mm | 11 mm | 4 µg/mL (≈ 7.32 µM) | 2 µg/mL | 8 mm | 10 mm | 4 µg/mL (≈ 7.32 µM) | 16 mm | 18 mm | ≤ 0.25 µg/mL | 0.25 µg/mL | 0.75 µg/mL | 1 µg/mL | 0.38 µg/mL | 3 µg/mL (≈ 5.49 µM) | 3 µg/mL (≈ 5.49 µM) | 1 µg/mL (≈ 1.83 µM) | MIC [8]: 1 µg/mL
7 | CO[C@@]1(NC(=O)Cc2cccs2)C(=O)N2C(C(=O)O)=C(COC(N)=O)CS[C@@H]21 [CEFOXITIN] |  |  |  |  |  |  |  |  |  |  |  |  |  |  | 12 µg/mL (≈ 28.1 µM) | 6 µg/mL (≈ 14 µM) | 8 µg/mL (≈ 18.7 µM) | 
